What was measured:
[1] = system: dural protein extravasation; experiment: Animal model of dural protein extravasation (rat); format: in vivo; conditions: for Inhibition of Dural Protein Extravasation ID50: rat, i.v.
Experimental: (§1) The following animal model was employed to determine the ability of each of the panel of compounds to inhibit protein extravasation, an exemplary functional assay of the neuronal mechanism of migraine.
Harlan Sprague-Dawley rats (225–325 g) or guinea pigs from Charles River Laboratories (225–325 g) were anesthetized with sodium pentobarbital intraperitoneally (65 mg/kg or 45 mg/kg respectively) and placed in a stereotaxic frame (David Kopf Instruments) with the incisor bar set at −3.5 mm for rats or −4.0 mm for guinea pigs. Following a midline sagital scalp incision, two pairs of bilateral holes were drilled through the skull (6 mm posterially, 2.0 and 4.0 mm laterally in rats; 4 mm posteriorly and 3.2 and 5.2 mm laterally in guinea pigs, all coordinates referenced to bregma). Pairs of stainless steel stimulating electrodes, insulated except at the tips (Rhodes Medical Systems, Inc.), were lowered through the holes in both hemispheres to a depth of 9 mm (rats) or 10.5 mm (guinea pigs) from dura.
The femoral vein was exposed and a dose of the test compound was injected intravenously (i.v.) at a dosing volume of 1 ml/Kg or, in the alternative, test compound was administered orally (p.o) via gavage at a volume of 2.0 ml/Kg. Approximately 7 minutes post i.v. injection, a 50 mg/Kg dose of Evans Blue, a fluorescent dye, was also injected intravenously. The Evans Blue complexed with proteins in the blood and functioned as a marker for protein extravasation. Exactly 10 minutes post-injection of the test compound, the left trigeminal ganglion was stimulated for 3 minutes at a current intensity of 1.0 mA (5 Hz, 4 msec duration) with a Model 273 potentiostat/galvanostat (EG&G Princeton Applied Research).
Fifteen minutes following stimulation, the animals were killed and exsanguinated with 20 mL of saline. The top of the skull was removed to facilitate the collection of the dural membranes. […]
(§2) A fluorescence microscope (Zeiss) equipped with a grating monchromator and a spectrophotometer was used to quantify the amount of Evans Blue dye in each sample. An excitation wavelength of approximately 535 nm was utilized and the emission intensity at 600 nm was determined. […] This facilitated the computer-controlled movement of the stage with fluorescence measurements at 25 points ([…]) on each dural sample. The mean and standard deviation of the measurements were determined by the computer.
(§3) The extravasation induced by the electrical stimulation of the trigeminal ganglion was an ipsilateral effect (i.e. occurs only on the side of the dura in which the trigeminal ganglion was stimulated). […] The ratio of the amount of extravasation in the dura from the stimulated side, over the amount of extravasation in the unstimulated side, was calculated. […]

[2] = system: dural protein extravasation; experiment: Animal model of dural protein extravasation (guinea pig); format: in vivo; conditions: Gpig (guinea pig), i.v.
Experimental: as §1
Harlan Sprague-Dawley rats (225–325 g) or guinea pigs from Charles River Laboratories (225–325 g) were anesthetized with sodium pentobarbital intraperitoneally (65 mg/kg or 45 mg/kg respectively) and placed in a stereotaxic frame (David Kopf Instruments) with the incisor bar set at −3.5 mm for rats or −4.0 mm for guinea pigs. […]
as §2, §3

SMILES	Inhibition of Dural Protein Extravasation ID100 ([1]; p.o., species not given)	Inhibition of Dural Protein Extravasation ID50 [1]	Inhibition of Dural Protein Extravasation ID50 [2]
CCOC(=O)[C@@H]1C[C@H]2C[C@@H](CN3CC(F)(F)C[C@H]3C(=O)OCC)CC[C@H]2CN1 [Compound IV(b), 3S,4aR,6S,8aR Ethyl 6-(((2S)-2-(Ethoxycarbonyl)-4,4-difluoropyrrolidinyl)methyl)-1,2,3,4,4a,5,6,7,8,8a-decahydroisoquinoline-3-carboxylate]	1e-05 µg/kg		
O=C(O)[C@@H]1C[C@H]2C[C@@H](COCc3nnn[nH]3)CC[C@H]2CN1 [Compound II, 3S,4aR,6S,8aR-6-((((1H-Tetrazole-5-yl)methyl)oxy)methyl)-1,2,3,4,4a,5,6,7,8,8a-decahydroisoquinoline-3-carboxylic acid]		15 (rat) ng/Kg	
O=C(O)c1ccc(C[C@H]2CC[C@H]3CN[C@H](C(=O)O)C[C@H]3C2)cc1 [Compound I, 3S,4aR,6S,8aR-6-(((4-carboxy)phenyl)methyl)-1,2,3,4,4a,5,6,7,8,8a-decahydroisoquinoline-3-carboxylic acid]		6.5 (rat), ng/Kg	4.0 (Gpig) ng/Kg
O=C(O)[C@@H]1C[C@H]2C[C@@H](CCSc3nnn[nH]3)CC[C@H]2CN1 [Compound III]		.0053 (rat) ng/Kg	

Reference: US7157582B2, “Selective iGluR5 receptor antagonists” (Eli Lilly and Company, priority 1999, dated 2007)
